Reference: the kinase profiling compilation of Christmann-Franck et al. (2016)

Key:
Test in all cases: Free Choice Kinase Assay Projects, Flashplate
[1] = molecular target: CSNK2A1 (human) (UniProt P68400); settings: compound 10.0 µM; ATP 0.1 µM
[2] = molecular target: AURKB (human) (UniProt Q96GD4); settings: compound 10.0 µM; ATP 10 µM
[3] = molecular target: TEK (human) (UniProt Q02763); settings: compound 10.0 µM; ATP 1 µM
[4] = molecular target: AXL (human) (UniProt P30530); settings: compound 10.0 µM; ATP 0.3 µM
[5] = molecular target: KDR (human) (UniProt P35968); settings: compound 10.0 µM; ATP 1 µM
[6] = molecular target: PDGFRB (human) (UniProt P09619); settings: compound 10.0 µM; ATP 0.3 µM
[7] = molecular target: PLK4 (human) (UniProt O00444); settings: compound 10.0 µM; ATP 0.3 µM
[8] = molecular target: EGFR (human) (UniProt P00533); settings: compound 10.0 µM; ATP 0.3 µM
[9] = molecular target: MAPK10 (human) (UniProt P53779); settings: compound 10.0 µM; ATP 0.3 µM
[10] = molecular target: NUAK1 (human) (UniProt O60285); settings: compound 10.0 µM; ATP 1 µM
[11] = molecular target: MAPK14 (human) (UniProt Q16539); settings: compound 10.0 µM; ATP 1 µM
[12] = molecular target: CDK2 CCNA2 (human) (UniProt P24941+P20248); settings: compound 10.0 µM; ATP 0.3 µM
[13] = molecular target: EPHB4 (human) (UniProt P54760); settings: compound 10.0 µM; ATP 1 µM
EPHB4 (human), sequence (P54760 whole entry, looked up): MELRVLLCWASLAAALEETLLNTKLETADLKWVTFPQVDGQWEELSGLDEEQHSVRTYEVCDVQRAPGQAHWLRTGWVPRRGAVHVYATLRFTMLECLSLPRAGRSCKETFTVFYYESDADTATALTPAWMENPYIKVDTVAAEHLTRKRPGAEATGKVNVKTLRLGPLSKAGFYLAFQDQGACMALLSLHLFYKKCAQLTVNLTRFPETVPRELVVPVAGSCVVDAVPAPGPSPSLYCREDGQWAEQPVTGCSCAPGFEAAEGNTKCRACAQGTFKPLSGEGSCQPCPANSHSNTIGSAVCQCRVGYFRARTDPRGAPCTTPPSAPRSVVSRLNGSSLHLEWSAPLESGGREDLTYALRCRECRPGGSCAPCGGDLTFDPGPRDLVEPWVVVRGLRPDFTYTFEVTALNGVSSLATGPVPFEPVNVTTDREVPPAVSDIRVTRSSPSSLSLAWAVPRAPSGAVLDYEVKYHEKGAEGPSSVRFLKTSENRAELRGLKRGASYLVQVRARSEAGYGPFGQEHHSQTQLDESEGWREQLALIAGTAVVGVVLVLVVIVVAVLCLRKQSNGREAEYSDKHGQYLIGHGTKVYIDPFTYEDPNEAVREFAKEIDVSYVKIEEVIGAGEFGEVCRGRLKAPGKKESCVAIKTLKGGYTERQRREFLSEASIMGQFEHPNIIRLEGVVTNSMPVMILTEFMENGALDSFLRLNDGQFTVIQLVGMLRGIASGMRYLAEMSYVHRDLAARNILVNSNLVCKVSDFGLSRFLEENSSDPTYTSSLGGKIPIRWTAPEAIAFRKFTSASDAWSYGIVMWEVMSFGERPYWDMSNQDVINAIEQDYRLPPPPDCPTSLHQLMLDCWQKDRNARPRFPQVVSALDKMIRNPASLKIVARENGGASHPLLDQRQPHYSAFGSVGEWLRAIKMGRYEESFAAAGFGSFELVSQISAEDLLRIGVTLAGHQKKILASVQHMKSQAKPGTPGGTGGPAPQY

[14] = molecular target: PLK1 (human) (UniProt P53350); settings: compound 10.0 µM; ATP 1 µM
[15] = molecular target: AKT1 (human) (UniProt P31749); settings: compound 10.0 µM; ATP 3 µM
[16] = molecular target: PTK2 (human) (UniProt Q05397); settings: compound 10.0 µM; ATP 1 µM
PTK2 (human), sequence (Q05397 whole entry, looked up): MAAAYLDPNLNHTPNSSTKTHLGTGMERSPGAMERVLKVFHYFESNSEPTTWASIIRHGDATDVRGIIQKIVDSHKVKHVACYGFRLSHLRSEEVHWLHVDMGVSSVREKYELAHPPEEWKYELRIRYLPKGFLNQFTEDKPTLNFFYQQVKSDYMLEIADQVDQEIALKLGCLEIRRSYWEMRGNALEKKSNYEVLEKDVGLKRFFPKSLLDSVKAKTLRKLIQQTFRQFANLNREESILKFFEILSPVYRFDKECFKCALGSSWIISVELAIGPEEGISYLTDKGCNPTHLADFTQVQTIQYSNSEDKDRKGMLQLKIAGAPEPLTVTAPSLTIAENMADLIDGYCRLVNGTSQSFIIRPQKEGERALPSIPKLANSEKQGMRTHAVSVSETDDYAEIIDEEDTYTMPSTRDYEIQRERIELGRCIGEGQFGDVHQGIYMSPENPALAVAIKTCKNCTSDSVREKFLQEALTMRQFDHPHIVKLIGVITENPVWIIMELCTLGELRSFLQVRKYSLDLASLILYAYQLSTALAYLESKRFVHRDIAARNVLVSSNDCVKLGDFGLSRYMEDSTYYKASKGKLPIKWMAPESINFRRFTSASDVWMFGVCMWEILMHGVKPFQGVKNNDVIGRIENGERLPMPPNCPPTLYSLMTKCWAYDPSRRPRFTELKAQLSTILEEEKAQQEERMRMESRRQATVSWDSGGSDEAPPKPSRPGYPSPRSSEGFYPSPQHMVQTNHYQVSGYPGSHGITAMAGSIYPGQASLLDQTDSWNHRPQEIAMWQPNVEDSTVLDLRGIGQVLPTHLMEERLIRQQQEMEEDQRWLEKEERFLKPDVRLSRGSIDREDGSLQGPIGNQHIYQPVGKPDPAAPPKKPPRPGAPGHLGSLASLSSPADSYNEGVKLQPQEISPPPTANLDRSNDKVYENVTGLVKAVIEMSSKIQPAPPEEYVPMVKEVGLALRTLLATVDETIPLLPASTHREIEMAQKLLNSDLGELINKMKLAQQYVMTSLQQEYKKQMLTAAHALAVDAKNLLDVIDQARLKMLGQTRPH

[17] = molecular target: SRC (human) (UniProt P12931); settings: compound 10.0 µM; ATP 0.3 µM
[18] = molecular target: CDK4 CCND1 (human) (UniProt P11802+P24385); settings: compound 10.0 µM; ATP 3 µM
[19] = molecular target: MET (human) (UniProt P08581); settings: compound 10.0 µM; ATP 0.3 µM
MET (human), sequence (P08581 whole entry, looked up): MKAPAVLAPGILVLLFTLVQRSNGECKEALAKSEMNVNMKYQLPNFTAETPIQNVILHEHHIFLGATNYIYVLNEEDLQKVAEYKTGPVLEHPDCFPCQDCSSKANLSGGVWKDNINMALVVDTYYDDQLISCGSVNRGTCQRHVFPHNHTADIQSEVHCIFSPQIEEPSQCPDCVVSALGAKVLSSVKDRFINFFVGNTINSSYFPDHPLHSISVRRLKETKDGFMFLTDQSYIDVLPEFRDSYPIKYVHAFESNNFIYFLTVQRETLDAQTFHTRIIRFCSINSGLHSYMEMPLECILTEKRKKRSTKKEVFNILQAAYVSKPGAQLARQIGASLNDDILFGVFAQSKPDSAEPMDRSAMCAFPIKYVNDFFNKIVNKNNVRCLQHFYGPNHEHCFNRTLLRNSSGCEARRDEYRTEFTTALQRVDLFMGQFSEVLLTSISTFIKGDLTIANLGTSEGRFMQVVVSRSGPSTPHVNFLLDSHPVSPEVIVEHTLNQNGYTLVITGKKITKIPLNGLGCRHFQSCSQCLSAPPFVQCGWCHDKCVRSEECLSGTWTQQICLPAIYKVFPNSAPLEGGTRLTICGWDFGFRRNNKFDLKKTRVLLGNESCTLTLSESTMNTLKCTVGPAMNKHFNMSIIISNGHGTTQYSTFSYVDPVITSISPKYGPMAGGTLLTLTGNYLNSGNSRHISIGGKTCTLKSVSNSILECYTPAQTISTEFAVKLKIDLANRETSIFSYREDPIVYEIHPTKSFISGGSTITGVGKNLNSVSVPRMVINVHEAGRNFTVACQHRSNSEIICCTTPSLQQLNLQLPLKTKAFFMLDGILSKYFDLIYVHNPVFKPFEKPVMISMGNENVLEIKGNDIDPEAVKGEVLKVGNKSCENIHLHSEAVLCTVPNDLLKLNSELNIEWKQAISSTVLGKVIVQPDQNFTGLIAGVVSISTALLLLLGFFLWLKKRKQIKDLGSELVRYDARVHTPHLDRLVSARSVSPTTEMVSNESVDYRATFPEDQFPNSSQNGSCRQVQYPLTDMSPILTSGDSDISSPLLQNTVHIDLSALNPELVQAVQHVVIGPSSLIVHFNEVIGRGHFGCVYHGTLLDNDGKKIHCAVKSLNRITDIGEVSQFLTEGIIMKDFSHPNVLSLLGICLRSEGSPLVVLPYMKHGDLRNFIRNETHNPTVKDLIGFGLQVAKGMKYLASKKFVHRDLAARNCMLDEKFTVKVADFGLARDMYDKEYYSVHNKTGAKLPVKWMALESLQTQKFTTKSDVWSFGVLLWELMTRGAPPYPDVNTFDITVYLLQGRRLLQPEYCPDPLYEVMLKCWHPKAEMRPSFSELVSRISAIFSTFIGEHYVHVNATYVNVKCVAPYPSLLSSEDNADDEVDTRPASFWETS

[20] = molecular target: MAP3K8 (human) (UniProt P41279); settings: compound 10.0 µM; ATP 3 µM
MAP3K8 (human), sequence (P41279 whole entry, looked up): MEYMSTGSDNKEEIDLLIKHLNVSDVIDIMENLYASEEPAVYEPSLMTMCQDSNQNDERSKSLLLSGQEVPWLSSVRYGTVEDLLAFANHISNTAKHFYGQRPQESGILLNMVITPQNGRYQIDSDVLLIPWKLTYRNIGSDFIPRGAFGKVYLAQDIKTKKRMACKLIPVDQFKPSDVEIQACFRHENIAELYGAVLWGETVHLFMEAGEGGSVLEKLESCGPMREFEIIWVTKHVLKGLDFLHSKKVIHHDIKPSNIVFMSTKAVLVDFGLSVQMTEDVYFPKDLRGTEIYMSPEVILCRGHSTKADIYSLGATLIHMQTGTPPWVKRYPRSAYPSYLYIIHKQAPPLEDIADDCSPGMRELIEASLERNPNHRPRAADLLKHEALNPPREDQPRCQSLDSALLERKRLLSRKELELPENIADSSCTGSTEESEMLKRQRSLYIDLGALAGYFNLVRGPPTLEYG

[21] = molecular target: AURKA (human) (UniProt O14965); settings: compound 10.0 µM; ATP 10 µM
AURKA (human), sequence (O14965 whole entry, looked up): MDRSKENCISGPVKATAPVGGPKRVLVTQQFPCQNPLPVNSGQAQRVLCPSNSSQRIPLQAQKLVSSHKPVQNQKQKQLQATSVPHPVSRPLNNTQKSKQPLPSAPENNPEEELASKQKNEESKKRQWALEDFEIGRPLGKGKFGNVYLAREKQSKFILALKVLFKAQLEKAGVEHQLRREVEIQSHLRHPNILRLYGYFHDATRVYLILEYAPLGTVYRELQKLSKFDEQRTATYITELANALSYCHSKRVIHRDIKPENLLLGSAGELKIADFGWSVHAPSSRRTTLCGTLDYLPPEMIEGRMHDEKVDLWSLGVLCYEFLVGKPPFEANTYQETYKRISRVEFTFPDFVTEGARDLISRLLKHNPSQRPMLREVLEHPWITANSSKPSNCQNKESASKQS

[22] = molecular target: IGF1R (human) (UniProt P08069); settings: compound 10.0 µM; ATP 1 µM
[23] = molecular target: ERBB2 (human) (UniProt P04626); settings: compound 10.0 µM; ATP 1 µM

CSNK2A1 (human), sequence (P68400 whole entry, looked up): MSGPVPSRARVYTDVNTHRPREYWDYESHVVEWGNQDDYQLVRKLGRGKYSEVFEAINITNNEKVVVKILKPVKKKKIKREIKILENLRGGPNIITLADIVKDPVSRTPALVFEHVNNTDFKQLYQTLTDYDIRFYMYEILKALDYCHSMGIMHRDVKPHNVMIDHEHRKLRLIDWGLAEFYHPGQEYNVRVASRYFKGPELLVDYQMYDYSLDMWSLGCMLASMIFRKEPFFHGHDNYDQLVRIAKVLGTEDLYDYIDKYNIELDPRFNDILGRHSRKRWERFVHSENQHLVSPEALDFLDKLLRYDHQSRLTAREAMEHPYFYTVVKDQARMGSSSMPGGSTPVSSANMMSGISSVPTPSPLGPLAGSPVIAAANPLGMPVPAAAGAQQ
AURKB (human), sequence (Q96GD4 whole entry, looked up): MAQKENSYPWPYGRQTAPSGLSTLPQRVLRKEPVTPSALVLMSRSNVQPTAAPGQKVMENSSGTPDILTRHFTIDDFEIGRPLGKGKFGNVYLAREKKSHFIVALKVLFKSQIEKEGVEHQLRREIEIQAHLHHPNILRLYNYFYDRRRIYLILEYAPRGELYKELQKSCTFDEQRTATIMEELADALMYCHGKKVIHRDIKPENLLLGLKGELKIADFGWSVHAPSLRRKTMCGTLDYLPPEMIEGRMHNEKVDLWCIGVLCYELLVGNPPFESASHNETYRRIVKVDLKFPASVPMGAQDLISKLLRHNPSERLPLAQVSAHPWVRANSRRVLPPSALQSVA

Row | Structure (SMILES) | residual activity [1] [%] | residual activity [2] [%] | residual activity [3] [%] | residual activity [4] [%] | residual activity [5] [%] | residual activity [6] [%] | residual activity [7] [%] | residual activity [8] [%] | residual activity [9] [%] | residual activity [10] [%] | residual activity [11] [%] | residual activity [12] [%] | residual activity [13] [%] | residual activity [14] [%] | residual activity [15] [%] | residual activity [16] [%] | residual activity [17] [%] | residual activity [18] [%] | residual activity [19] [%] | residual activity [20] [%] | further results
1 | CSc1ccccc1CSc1nc(-c2ccncc2)c(-c2ccc(F)cc2)[nH]1 | 83 | 79 | 48 | 85 | 51 | 85 | 59 | 30 | 58 | 95 | 10 | 66 | 52 | 82 | 137 | 98 | 29 | 89 | 76 | 85 | residual activity [21]: 80%; residual activity [22]: 60%; residual activity [23]: 29%
2 | Fc1ccc(-c2[nH]c(SCCCc3ccccc3)nc2-c2ccncc2)cc1 | 87 | 88 | 65 | 71 | 52 | 80 | 74 | 31 | 56 | 89 | 10 | 54 | 55 | 92 | 98 | 99 | 33 | 99 | 81 | 85 | residual activity [21]: 88%; residual activity [22]: 49%; residual activity [23]: 30%
3 | Oc1ccccc1CSc1nc(-c2ccncc2)c(-c2ccc(F)cc2)[nH]1 | 90 | 74 | 32 | 96 | 42 | 64 | 38 | 11 | 46 | 108 | 6 | 54 | 44 | 104 | 137 | 128 | 32 | 79 | 71 | 91 | residual activity [21]: 74%; residual activity [22]: 49%; residual activity [23]: 11%
4 | CSc1nc(-c2ccnc(NC(=O)C3CCCC3)c2)c(-c2ccc(F)cc2)n1C | 91 | 92 | 35 | 62 | 49 | 65 | 46 | 30 | 16 | 100 | 3 | 88 | 39 | 107 | 100 | 80 | 43 | 105 | 91 | 88 | residual activity [21]: 72%; residual activity [22]: 53%; residual activity [23]: 48%
5 | Fc1ccc(-c2[nH]c(/C=C/c3ccccc3)nc2-c2ccncc2)cc1 | 73 | 32 | 6 | 61 | 17 | 34 | 5 | 2 | 11 | 45 | 0 | 32 | 21 | 39 | 75 | 82 | 8 | 36 | 25 | 35 | residual activity [21]: 38%; residual activity [22]: 16%; residual activity [23]: 3%
